Results published in patent US10982174B2, “Synergistic surfactant blends” (STEPAN COMPANY, priority 2012, dated 2021).

Key:
Format in all cases: physicochemical
[1] = Interfacial tension (IFT), pendant drop tensiometer, against light mineral oil; details: individual surfactant, ambient temperature, in mN/m (unit assumed)
Protocol: Interfacial tension is measured by any suitable method. […] The expected IFT value for a blend is calculated based on ideal mixing (non-synergistic) using the active component in each blend. The equation used is: Expected IFT=X·IFTA+(1−X)·IFTB where X is the actives % of Component A, IFTA is the IFT of Component A, and IFTB is the IFT of Component B.
If the measured IFT for a blend is less than the expected IFT, the blend is synergistic; if the measured IFT for a blend is greater than the expected IFT, the blend is antagonistic.
Interfacial tension (IFT) of all the individual components and their blends is measured at a given % active against light mineral oil at ambient temperature using a Kruss DSA-20 pendent drop tensiometer.

[2] = Appearance / solubility of surfactant blends, neat and diluted with deionized water; details: SLS/Quat (molar) 0:1
Protocol: All of the surfactant blends tested are prepared at the designated molar ratios without any pH adjustment. Dilutions are made using deionized water to the desired actives level. Actives amounts are wt. % unless indicated otherwise. Appearances are reported at ambient temperature for samples prepared within the last 24 h.

[3] = Critical micelle concentration (CMC) and beta parameter (synergy)
Protocol: Synergy can also be evaluated with respect to a blend's beta parameter (β), which can be calculated from the measured critical micelle concentration. Suitable methods for calculating β have been described previously (see, e.g., U.S. Pat. No. 5,360,571, the teachings of which are incorporated herein by reference).
Conveniently, the critical micelle concentration of a blend is measured at dilute concentrations in deionized water with pH adjusted to be within the range of 6 to 7. Critical micelle concentration generally refers to the minimum concentration of surfactant (in mg/L) needed to support micelle formation. The measurement can be performed, for instance, using a Krüss K12 tensiometer at 25° C. Once the critical micelle concentration is measured, the value of β can be found from:
where X is the total mole fraction of Surfactant 1 in the mixed micelles; α is the mole fraction of Surfactant 1 in solution; C1, C2, and C12 are the critical micelle concentrations of Surfactant 1, Surfactant 2, and their mixture; and β is the interaction parameter.
A negative value of β indicates synergy, while a positive value of β indicates antagonism, and values close to zero indicate little or no synergy.
The critical micelle concentration (CMC) of a blend is measured at a diluted concentration in deionized water with pH adjusted to 6-7. The measurement is done at 25° C. using a Kruss K100 tensiometer. The synergy of the blends, indicated by the beta parameter, is calculated based on the CMC data using the equation, β=[In(αA12/XA1)]/(1−X)^2 in which α is the mole fraction of the anionic surfactant in solution, X is the mole fraction of the anionic surfactant in mixed micelles, A1 is the critical micelle concentration of the anionic surfactant, and A12 is the critical micelle concentration of the blend.

[4] = deionized water, pH 6-7, 25° C.

SMILES | IFT (0.1% actives) [1] | Appearance 0.01% actives [2] | Appearance 0.2% actives [2] | Appearance concentrate [2] | also measured
C=CCCCCCCCC[N+](C)(C)C [C10-42, C10 Amine DMS Quat] | 42.0 |  |  |  | 
C=CCCCCCCCC(=O)NCCC[N+](C)(C)C [C10-18, C10 DMAPA Quat] |  | clear | clear | solid | 
CC/C=C/CCCCCCCC(=O)NCCC[N+](C)(C)C [C12-18] |  | clear | clear | solid | 
C=CCCCCCCCC(=O)OCC[N+](C)(C)C [C10-7, C10 DMEA Ester Quat] |  |  |  |  | Surface tension at CMC (mN/m) [3]: 41.1 mN/m; CMC (mg/L) [3, 4]: 342.6 mg/L; CMC (mol/L) [3, 4]: 0.000932 mol/L
C=CCCCCCCCC(=O)OC(CCCCCCCC(=O)[O-])CS(=O)(=O)[O-].[Na+].[Na+] (centres unmarked) [C10-32, C10 UFA SLA] | 25.9 |  |  |  | 
